Assay results reported in patent EP0496332A1, “Alpha-aminoquinolinoyl-[3]-penicillines, process for their preparation and their use as antibacterial agents” (ARZNEIMITTELWERK DRESDEN GmbH, priority 1991, dated 1992).
In brackets after ≈: the same amount, converted by molar mass.

What was measured:
Test in all cases: In-vitro test, inhibitory concentration by dilution series
Assay type in all cases: cell-based
[1] = system: Staphylococcus aureus SG 511; settings: II = Staphylococcus aureus SG 511, step = concentration with no visible growth; for MIC: SG511, read-out: Hemmkonzentration nach Verdünnung (Verdünnungsreihe) (converted)
Text: (§1) Die antibiotische Wirksamkeit erfindungsgemäßer Verbindungen wurde in der üblichen Weise durch Ermittlung der Hemmkonzentrationen nach Verdünnung ermittelt.
(§2) Die erhaltenen Ergebnisse sind in der nachstehenden Tabelle zusammengefaßt.

[2] = system: Serratia marcescens SG 621; settings: VIII = Serratia marcescens SG 621, step = concentration with no visible growth; for MIC: SG621, read-out: Hemmkonzentration nach Verdünnung (Verdünnungsreihe) (converted)
Text: as §1, §2

[3] = system: Proteus vulgaris OX 19; settings: III = Proteus vulgaris OX 19, step = concentration with no visible growth; for MIC: OX19, read-out: Hemmkonzentration nach Verdünnung (Verdünnungsreihe) (converted)
Text: as §1, §2

[4] = system: Salmonella gallinarium ATCC 9184; settings: ATCC9184; VI = Salmonella gallinarium ATCC 9184; step = concentration with no visible growth; read-out: Hemmkonzentration nach Verdünnung (Verdünnungsreihe) (converted)
Text: as §1, §2

[5] = system: Staphylococcus epidermidis; settings: X = Staphylococcus epidermidis, Laborstämme, step = concentration with no visible growth; for MIC: read-out: Hemmkonzentration nach Verdünnung (Verdünnungsreihe) (converted)
Text: as §1, §2

[6] = system: Klebsiella pneumoniae SG 117; settings: VII = Klebsiella pneumoniae SG 117, step = concentration with no visible growth; for MIC: SG117, read-out: Hemmkonzentration nach Verdünnung (Verdünnungsreihe) (converted)
Text: as §1, §2

[7] = system: Pseudomonas aeruginosa SG 137; settings: V = Pseudomonas aeruginosa SG 137, step = concentration with no visible growth; for MIC: SG137, read-out: Hemmkonzentration nach Verdünnung (Verdünnungsreihe) (converted)
Text: as §1, §2

[8] = system: Bacillus subtilis SG 119; settings: I = Bacillus subtilis SG 119, step = concentration with no visible growth; for MIC: SG119, read-out: Hemmkonzentration nach Verdünnung (Verdünnungsreihe) (converted)
Text: as §1, §2

[9] = system: Citrobacter freudii; settings: XIV = Citrobacter freudii, Laborstämme, step = concentration with no visible growth; for MIC: read-out: Hemmkonzentration nach Verdünnung (Verdünnungsreihe) (converted)
Text: as §1, §2

[10] = system: Staphylococcus aureus; settings: IX = Staphylococcus aureus, Laborstämme, step = concentration with no visible growth; for MIC: read-out: Hemmkonzentration nach Verdünnung (Verdünnungsreihe) (converted)
Text: as §1, §2

[11] = system: Enterobacter cloacae; settings: XIII = Enterobacter cloacae, Laborstämme, step = concentration with no visible growth; for MIC: read-out: Hemmkonzentration nach Verdünnung (Verdünnungsreihe) (converted)
Text: as §1, §2

[12] = system: Enterokokken; settings: XI = Enterokokken, Laborstämme, step = concentration with no visible growth; for MIC: read-out: Hemmkonzentration nach Verdünnung (Verdünnungsreihe) (converted)
Text: as §1, §2

[13] = system: Pseudomonas aeruginosa NCTC 10701; settings: IV = Pseudomonas aeruginosa NCTC 10701, step = concentration with no visible growth; for MIC: NCTC10701, read-out: Hemmkonzentration nach Verdünnung (Verdünnungsreihe) (converted)
Text: as §1, §2

[14] = system: Escherichia coli; settings: XII = Escherichia coli, Laborstämme, step = concentration with no visible growth; for MIC: read-out: Hemmkonzentration nach Verdünnung (Verdünnungsreihe) (converted)
Text: as §1, §2

| SMILES | MIC [1] [µM] | MIC [2] [µM] | MIC [3] [µM] | MIC [4] [µM] | MIC [5] [µM] | MIC [6] [µM] | MIC [7] [µM] | MIC [8] [µM] | MIC [9] [µM] | MIC [10] [µM] | MIC [11] [µM] | MIC [12] [µM] | MIC [13] [µM] | MIC [14] [µM] | further results |
| --- | --- | --- | --- | --- | --- | --- | --- | --- | --- | --- | --- | --- | --- | --- | --- |
| CCc1cc2c(OC(=O)OCC(C)C)c(C(=O)N[C@@H](C(=O)N[C@@H]3C(=O)N4[C@@H]3SC(C)(C)[C@@H]4C(=O)O)c3ccccc3)cnc2cc1COc1ccc(Cl)c(C)c1 [Beisp. 17, 6-[D-(-)-α-([4'-Isobutoxycarbonyloxy-6'-ethyl-7'-(3''-methyl-4''-chlor)-phenoxymethylen-chinolinoyl-3']-carboxamido)-α-phenylacetamido]-penicillansäure-Natriumsalz] | 1.56 (≈ 1.25 µg/mL) | 1.56 (≈ 1.25 µg/mL) | 0.78 (≈ 0.627 µg/mL) | 3.12 (≈ 2.51 µg/mL) | 6.25 (≈ 5.02 µg/mL) | 0.39 (≈ 0.313 µg/mL) | 6.25 (≈ 5.02 µg/mL) | 1.56 (≈ 1.25 µg/mL) | 6.25 (≈ 5.02 µg/mL) | 25 (≈ 20.1 µg/mL) | 6.25 (≈ 5.02 µg/mL) | 25 (≈ 20.1 µg/mL) | 6.25 (≈ 5.02 µg/mL) | 1.56 (≈ 1.25 µg/mL) | – |
| CCOC(=O)Oc1c(C(=O)N[C@@H](C(=O)N[C@@H]2C(=O)N3[C@@H]2SC(C)(C)[C@@H]3C(=O)O)c2ccccc2)cnc2cc(COc3ccc(C)cc3)c(CC)cc12 [Beisp. 3, 6-[D-(-)-α-([4'-Ethoxycarbonyloxy-6'-ethyl-7'-(4''-methyl)-phenoxymethylen-chinolinoyl-3']-carboxamido)-α-phenylacetamido]-penicillansäure-Natriumsalz] | 0.78 (≈ 0.578 µg/mL) | 0.78 (≈ 0.578 µg/mL) | 0.39 (≈ 0.289 µg/mL) | 3.12 (≈ 2.31 µg/mL) | 12.5 (≈ 9.26 µg/mL) | 0.78 (≈ 0.578 µg/mL) | 12.5 (≈ 9.26 µg/mL) | 1.56 (≈ 1.16 µg/mL) | 6.25 (≈ 4.63 µg/mL) | 50 (≈ 37 µg/mL) | 6.25 (≈ 4.63 µg/mL) | 25 (≈ 18.5 µg/mL) | 3.12 (≈ 2.31 µg/mL) | 1.56 (≈ 1.16 µg/mL) | – |
| CC(C)COC(=O)Oc1c(C(=O)N[C@@H](C(=O)N[C@@H]2C(=O)N3[C@@H]2SC(C)(C)[C@@H]3C(=O)O)c2ccccc2)cnc2ccc(C(C)C)cc12 [Beisp. 11, 6-[D-(-)-α-([4'-Isobutoxycarbonyloxy-6'-isopropyl-chinolinoyl-3']-carboxamido)-α-phenylacetamido]-penicillansäure-Natriumsalz] | 3.12 (≈ 2.07 µg/mL) | 3.12 (≈ 2.07 µg/mL) | 0.78 (≈ 0.517 µg/mL) | 3.12 (≈ 2.07 µg/mL) | 12.5 (≈ 8.28 µg/mL) | 3.12 (≈ 2.07 µg/mL) | 12.5 (≈ 8.28 µg/mL) | 3.12 (≈ 2.07 µg/mL) | 12.5 (≈ 8.28 µg/mL) | 25 (≈ 16.6 µg/mL) | 12.5 (≈ 8.28 µg/mL) | 12.5 (≈ 8.28 µg/mL) | 1.56 (≈ 1.03 µg/mL) | 3.12 (≈ 2.07 µg/mL) | – |
| CC(C)COC(=O)Oc1c(C(=O)N[C@@H](C(=O)N[C@@H]2C(=O)N3[C@@H]2SC(C)(C)[C@@H]3C(=O)[O-])c2ccccc2)cnc2c1ccc1ccccc12.[Na+] [Beisp. 12, 6-[D-(-)-α-([4'-Isobutoxycarbonyloxybenzo[1,2n]chinolinoyl-3']-carboxamido)-α-phenylacetamido]-penicillansäure-Natriumsalz] | – | – | – | – | – | – | – | – | – | – | – | – | – | – | Hemmkonzentration nach Verdünnung (Verdünnungsreihe) [1]: 9 (= bei 0,00078 mM); Hemmkonzentration nach Verdünnung (Verdünnungsreihe) [2]: 7 (= bei 0,00312 mM); Hemmkonzentration nach Verdünnung (Verdünnungsreihe) [3]: 10 (= bei 0,00039 mM); Hemmkonzentration nach Verdünnung (Verdünnungsreihe) [5]: 7 (= bei 0,00312 mM); Hemmkonzentration nach Verdünnung (Verdünnungsreihe) [6]: 9 (= bei 0,00078 mM); Hemmkonzentration nach Verdünnung (Verdünnungsreihe) [7]: 5 (= bei 0,0125 mM); Hemmkonzentration nach Verdünnung (Verdünnungsreihe) [8]: 7 (= bei 0,00312 mM); Hemmkonzentration nach Verdünnung (Verdünnungsreihe) [9]: 6 (= bei 0,00625 mM); Hemmkonzentration nach Verdünnung (Verdünnungsreihe) [10]: 6 (= bei 0,00625 mM); Hemmkonzentration nach Verdünnung (Verdünnungsreihe) [11]: 6 (= bei 0,00625 mM); Hemmkonzentration nach Verdünnung (Verdünnungsreihe) [12]: 5 (= bei 0,0125 mM); Hemmkonzentration nach Verdünnung (Verdünnungsreihe) [13]: 7 (= bei 0,00312 mM); Hemmkonzentration nach Verdünnung (Verdünnungsreihe) [14]: 7 (= bei 0,00312 mM) |
| COc1cc2ncc(C(=O)N[C@@H](C(=O)N[C@@H]3C(=O)N4[C@@H]3SC(C)(C)[C@@H]4C(=O)O)c3ccccc3)c(OC(=O)OCC(C)C)c2cc1OC [Beisp. 20, 6-[D-(-)-α-([4'-Isobutoxycarbonyloxy-6',7'-dimethoxychinolinoyl-3']-carboxamido)-α-phenylacetamido]-penicillansäure-Natriumsalz] | 1.56 (≈ 1.06 µg/mL) | 6.25 (≈ 4.25 µg/mL) | 0.39 (≈ 0.265 µg/mL) | 3.12 (≈ 2.12 µg/mL) | 6.25 (≈ 4.25 µg/mL) | 1.56 (≈ 1.06 µg/mL) | 12.5 (≈ 8.51 µg/mL) | 1.56 (≈ 1.06 µg/mL) | 12.5 (≈ 8.51 µg/mL) | 25 (≈ 17 µg/mL) | 12.5 (≈ 8.51 µg/mL) | 12.5 (≈ 8.51 µg/mL) | 0.39 (≈ 0.265 µg/mL) | 3.12 (≈ 2.12 µg/mL) | – |
| CCOC(=O)Oc1c(C(=O)N[C@@H](C(=O)N[C@@H]2C(=O)N3[C@@H]2SC(C)(C)[C@@H]3C(=O)O)c2ccccc2)cnc2cc(COc3ccc(Br)cc3)c(CC)cc12 [Beisp. 2, 6-[D-(-)-α-([4'-Ethoxycarbonyloxy-6'-ethyl-7'-(4''-brom)-phenoxymethylen-chinolinoyl-3']-carboxamido)-α-phenylacetamido]-penicillansäure-Natriumsalz] | 1.56 (≈ 1.26 µg/mL) | 1.56 (≈ 1.26 µg/mL) | 0.78 (≈ 0.628 µg/mL) | 1.56 (≈ 1.26 µg/mL) | 12.5 (≈ 10.1 µg/mL) | 0.78 (≈ 0.628 µg/mL) | 12.5 (≈ 10.1 µg/mL) | 3.12 (≈ 2.51 µg/mL) | 6.25 (≈ 5.04 µg/mL) | 25 (≈ 20.1 µg/mL) | 6.25 (≈ 5.04 µg/mL) | 12.5 (≈ 10.1 µg/mL) | 6.25 (≈ 5.04 µg/mL) | 1.56 (≈ 1.26 µg/mL) | – |
| CCc1cc2c(OC(=O)OCC(C)C)c(C(=O)N[C@@H](C(=O)N[C@@H]3C(=O)N4[C@@H]3SC(C)(C)[C@@H]4C(=O)O)c3ccccc3)cnc2cc1COc1ccc(C(C)=O)cc1 [Beisp. 15, 6-[D-(-)-α-([4'-Isobutoxycarbonyloxy-6'-ethyl-7'-(4''-acetyl)-phenoxymethylen-chinolinoyl-3']-carboxamido)-α-phenylacetamido]-penicillansäure-Natriumsalz] | 0.78 (≈ 0.622 µg/mL) | 0.78 (≈ 0.622 µg/mL) | 0.39 (≈ 0.311 µg/mL) | 1.56 (≈ 1.24 µg/mL) | 3.12 (≈ 2.49 µg/mL) | 0.78 (≈ 0.622 µg/mL) | 3.12 (≈ 2.49 µg/mL) | 3.12 (≈ 2.49 µg/mL) | 3.12 (≈ 2.49 µg/mL) | 6.25 (≈ 4.98 µg/mL) | 3.12 (≈ 2.49 µg/mL) | 6.25 (≈ 4.98 µg/mL) | 3.12 (≈ 2.49 µg/mL) | 1.56 (≈ 1.24 µg/mL) | – |
| CCc1cc2c(OC(=O)OCC(C)C)c(C(=O)N[C@@H](C(=O)N[C@@H]3C(=O)N4[C@@H]3SC(C)(C)[C@@H]4C(=O)O)c3ccccc3)cnc2cc1CN1CCOCC1 [Beisp. 14, 6-[D-(-)-α-([4'-Isobutoxycarbonyloxy-6'-ethyl-7'-morpholinomethylen-chinolinoyl-3']-carboxamido)-α-phenylacetamido]-penicillansäure-Natriumsalz] | 0.78 (≈ 0.583 µg/mL) | 0.78 (≈ 0.583 µg/mL) | 0.2 (≈ 0.15 µg/mL) | 1.56 (≈ 1.17 µg/mL) | 3.12 (≈ 2.33 µg/mL) | 0.78 (≈ 0.583 µg/mL) | 6.25 (≈ 4.67 µg/mL) | 6.25 (≈ 4.67 µg/mL) | 3.12 (≈ 2.33 µg/mL) | 3.12 (≈ 2.33 µg/mL) | 3.12 (≈ 2.33 µg/mL) | 6.25 (≈ 4.67 µg/mL) | 0.78 (≈ 0.583 µg/mL) | 0.78 (≈ 0.583 µg/mL) | – |
| CCOCc1cc2ncc(C(=O)N[C@@H](C(=O)N[C@@H]3C(=O)N4[C@@H]3SC(C)(C)[C@@H]4C(=O)O)c3ccccc3)c(OC(=O)OCC)c2cc1CC [Beisp. 6, 6-[D-(-)-α-([4'-Ethoxycarbonyloxy-6'-ethyl-7'-ethoxy-methylen-chinolinoyl-3']-carboxamido)-α-phenylacetamido]-penicillansäure-Natriumsalz] | 1.56 (≈ 1.06 µg/mL) | 1.56 (≈ 1.06 µg/mL) | 0.39 (≈ 0.265 µg/mL) | 1.56 (≈ 1.06 µg/mL) | 6.25 (≈ 4.24 µg/mL) | 0.78 (≈ 0.529 µg/mL) | 6.25 (≈ 4.24 µg/mL) | 1.56 (≈ 1.06 µg/mL) | 3.12 (≈ 2.12 µg/mL) | 12.5 (≈ 8.48 µg/mL) | 3.12 (≈ 2.12 µg/mL) | 12.5 (≈ 8.48 µg/mL) | 0.78 (≈ 0.529 µg/mL) | 1.56 (≈ 1.06 µg/mL) | – |
